In patent US9428665B2, “Photopolymerizable inkjet ink, ink cartridge, and inkjet recording device” (Ricoh Company, Ltd., priority 2011, dated 2016):
Like-named read-outs stand apart in the source and are kept apart here.

Experiments:
[1] = in vivo; cited from earlier work
[2] = cited from earlier work
female mice = test: Skin sensitization test based on the LLNA (Local Lymph Node Assay), SI value by BrdU intake; type: in vivo; settings: test substance 50.0 w/v % in acetone:olive oil 4:1, 25 μL/auricle once/day × 3 days, SI less than 3 = negative for skin sensitization
Text: Here, the photopolymerizable monomer negative for skin sensitization refers to at least one of the following compounds (1) to (3): • (1) a compound having a Stimulation Index (SI value) of less than 3, where the Stimulation Index indicates the extent of sensitization as measured by a skin sensitization test based on the LLNA (Local Lymph Node Assay); • (2) a compound evaluated as “negative for skin sensitization” or “no skin sensitization” in its MSDS (Material Safety Data Sheet); and • (3) a compound evaluated as “negative for skin sensitization” or “without skin sensitization” in literature [e.g., Contact Dermatitis 8 223-235 (1982)]. […]
According to the skin sensitization test based on the LLNA (Local Lymph Node Assay), the SI value was measured in the below described manner. […]
Before treated with the test substances, the positive control or the vehicle control, female mice were acclimated for 8 days including 6-day quarantine. […] Based on the body weights measured 2 days before the initiation of sensitization, they were categorized into 2 groups (4 mice/group) by the body weight stratified random sampling method so that the body weight of each individual was within ±20% of the average body weight of all the individuals. […]

[3] = test method: the maximization method; cited from earlier work
[4] = test method: OECD test guideline 406

## C=CC(=O)NCCO [HEAA, Hydroxyethylacryl amide]
[1]
  skin sensitization evaluation (MSDS or literature): none

## Caprolactone-modified dipentaerythritol hexaacrylate [DPCA-60]
[2]; in vivo
  skin sensitization evaluated in the MSDS: negative

## CCC(Cc1ccccc1)(C(=O)c1ccc(N2CCOCC2)cc1)N(C)C (centres unmarked) [Example C3, 2-Benzyl-2-dimethylamino-1-(4-morpholinophenyl)butanone-1]
[2]; [4]
  skin sensitization evaluated in the MSDS: none

## CCc1cc(CC)c2sc3ccccc3c(=O)c2c1 [2,4-Diethylthioxanthone]
Female mice
  SI value (Stimulation Index): 1.4

## CSc1ccc(C(=O)C(C)(C)N2CCOCC2)cc1 [Example C2, 2-Methyl-1-[4-(methylthio)phenyl]-2-morpholinopropan-1-one]
[2]; [4]
  skin sensitization evaluated in the MSDS: none

## C=C(C)C(=O)OC(C)(C)C [LIGHT ESTER TB, t-Butyl methacrylate]
[3]
  skin sensitization evaluated in the literature: negative

## CCC(Cc1ccc(C)cc1)(C(=O)c1ccc(N2CCOCC2)cc1)N(C)C (centres unmarked) [Example C1, 2-Dimethylamino-2-(4-methylbenzyl)-1-(4-morpholin-4-yl-phenyl) butan-1-one]
[2]; [4]
  skin sensitization evaluated in the MSDS: none

## C=COCCOCCOCCOC=C [Example B1, Triethylene glycol divinyl ether]
[2]; [4]
  skin sensitization evaluated in the MSDS: negative

## C=C(C)C(=O)OCCCCCC [HEXYL METHACRYLATE, n-Hexyl methacrylate]
[3]
  skin sensitization evaluated in the literature: negative

## CCCCC(CC)COC(=O)c1ccc(N(C)C)cc1 (centres unmarked) [2-ethylhexyl p-dimethylaminobenzoate]
[2]; [4]
  skin sensitization evaluated in the MSDS: none

## C=C(C)C(=O)OCCCCC [n-AMYL METHACRYLATE, n-Pentyl methacrylate]
[3]
  skin sensitization evaluated in the literature: negative
